Measured values: patent US11679158B2, “Biodegradable lipids for the delivery of active agents” (ALNYLAM PHARMACEUTICALS, INC., priority 2011, dated 2023)

What was measured:
[1] = Lipid nanoparticle size by dynamic laser light scattering before and after overnight dialysis; assay type: physicochemical; details: intensity weighted diameter, LNP with AD-1661; for LNPs Size (nm) change: size after dialysis: after overnight dialysis; for LNPs Size (nm) change: size before dialysis: before overnight dialysis
Protocol: The size of the lipid nanoparticles was measured before and after undergoing dialysis overnight. In general, greater changes in lipid nanoparticle size are indicative of lesser stability.
Dynamic laser light scattering was used to determine the lipid nanoparticle size (expressed as the intensity weighted diameter) with a Zetasizer (Malvern Instruments, Inc. of Westborough, Mass.). All measurements were made at 532 nm wavelength at the scattering angle of 173° using normal resolution mode as the analysis model.

[2] = HPLC retention time of cationic lipid in lipid nanoparticles relative to cholesterol; assay type: physicochemical; details: HPLC retention time of lipid in LNP (AD-1661 payload) relative to cholesterol; in min (unit assumed)
Protocol: Furthermore, the HPLC retention time for each biodegradable cationic lipid was measured in lipid nanoparticles prepared from them. The lipid nanoparticles were prepared as described in Example 35 using AD-1661 as the payload. The retention times are reported in the table below relative to the retention time for cholesterol.
The HPLC buffer used was a mixture of two solutions (Solution #1 and Solution #2). • Solution #1: 80% methanol/20% 10 mM NH4HCO3 • Solution #2: 80% methanol/20% isopropanol

LNPs Size (nm) change: size after dialysis [1]	LNPs Size (nm) change: size before dialysis [1]	t(lipid) − t(chol) [2]	Compound
77 nm	73 nm	0.848	CCCCCC/C=C\COC(=O)C(C)CCCCCCC(CCCCCCC(C)C(=O)OC/C=C\CCCCCC)OC(=O)CCCN(C)C (stereo not drawn)
–	–	2.106	CC(C)CCC(CCOC(=O)CCCCCCCCCC(CCCCCCCCCC(=O)OCCC(CCC(C)C)C(C)C)OC(=O)CCCN(C)C)C(C)C (stereo not drawn)
–	–	3.178	CCCCCC(CCCCC)CCOC(=O)CCCCCCCCCC(CCCCCCCCCC(=O)OCCC(CCCCC)CCCCC)OC(=O)CCCN(C)C
56 -> 56 nm	56 -> 56 nm	2.365	CCCCCC(CCCCC)CCOC(=O)CCCCCCCC(CCCCCCCC(=O)OCCC(CCCCC)CCCCC)OC(=O)CCCN(C)C

The remaining lines, values behind:

Compound	LNPs Size (nm) change: size after dialysis [1]	LNPs Size (nm) change: size before dialysis [1]	t(lipid) − t(chol) [2]
CCCCCCCC/C=C\COC(=O)CCCCCCCC(CCCCCCCC(=O)OC/C=C\CCCCCCCC)OC(=O)CCCN(C)C	67 nm	60 nm	1.44
CN(C)CCCC(=O)OC(CCCCCCCC/C=C\CCCCCCCC(=O)OCC(C)(C)C)CCCCCCCC/C=C\CCCCCCCC(=O)OCC(C)(C)C	–	–	2.707
CCCCCCCCCC/C=C\COC(=O)CCCCCCCC(CCCCCCCC(=O)OC/C=C\CCCCCCCCCC)OC(=O)CCCN(C)C	67 nm	68 nm	2.219
CC(C)CCC(COC(=O)CCCCCCCCCC(CCCCCCCCCC(=O)OCC(CCC(C)C)C(C)C)OC(=O)CCCN(C)C)C(C)C (stereo not drawn)	60 nm	59 nm	1.751
